The values that follow come from PubChem BioAssay (NCI).

Common to all, as to experiment: DTP human tumour cell line panel, 48 h
Assay [1] concerns UACC-62 melanoma.
Assay [2] concerns ACHN renal.
Assay [3] deals with HCT-116 colon.
For assay [4], the system named is HOP-92 NSCLC.
Assay [5] deals with T-47D breast.
The subject of assay [6] is A498 renal.
The subject of assay [7] is MALME-3M melanoma.
The test system of assay [8] is SK-OV-3 ovarian.
Assay [9] has as its system MDA-MB-231 breast.
In assay [10] the test system is SF-539 CNS.

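Grown in 96-well plates, cells were treated for 48 hours with each compound at five concentrations. Insufficient inhibition: endpoint recorded as highest concentration tested. GI50 is the concentration that inhibits growth by half. At the TGI there is no net growth.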

Take `CN1CCC(COc2cnc(-c3cccc(Cn4nc(-c5cccc(C#N)c5)ccc4=O)c3)nc2)CC1`: the GI50 was 2.07 µM in assay [1]; 2.38 µM in assay [2]; 2.41 µM in assay [3]; 1.02 µM in assay [4]; 2.27 µM in [5]; 7.2 µM in [6]. Further, the GI50 is 1.83 µM in [7], 5.93 µM in [8], 2 µM in assay [9] and 1.7 µM in [10]. In addition, the TGI in assay [1] is 4.54 µM; in assay [2], 5.78 µM; in assay [3], 6.35 µM; in [4], 12.6 µM; in assay [5] it was 5.99 µM; in assay [6] it was 20.6 µM. Moreover, the TGI in assay [7] amounted to 3.63 µM; in assay [8], 18.5 µM; in [9], 4.43 µM; in assay [10] it was 3.3 µM.

With `Cc1ccc(Cl)cc1Nc1nc(C(F)(F)F)ccc1C(=O)N/N=C/c1cccnc1`, the GI50 in [1] is 3.25 µM; in assay [2], 3.63 µM; in assay [3], 2.34 µM; in assay [4], 1.55 µM; in [5], 3.16 µM; in assay [6], 2.95 µM. For the same molecule, the GI50 in assay [7] is 1.27 µM; in assay [8], 3.31 µM; in assay [9] it was 2.08 µM; in assay [10], 2.45 µM. Also, the TGI was 13.7 µM in assay [1]; 13.1 µM in assay [2]; 14.4 µM in assay [3]; 7.37 µM in [4]; 20.8 µM in assay [5]; 11.7 µM in assay [6]. Also, the TGI in assay [7] came out at 8.27 µM; in assay [8] it was 15.9 µM; in [9], 17.4 µM; in [10] it was 10 µM.
